# Like-named read-outs stand apart in the source and are kept apart here.
# Tested on: metastatic or surgically unresectable urothelial cancer harboring select FGFR genetic alterations
# Conditions: Total (all 3 regimens), chemo relapsed/refractory
# From the text: The study comprises a Screening Phase (molecular screening at any time prior to first dose and study screening within 30 days of first dose), a treatment phase, and a post-treatment follow-up phase. The treatment phase comprises the period from first dose until the end-of-treatment visit. The follow-up phase extends until the subject has died, withdraws consent, is lost to follow-up, or the end of study, whichever comes first.
# Included patients were adults with measurable urothelial cancer per Response Evaluation Criteria in Solid Tumors version 1.1.
# Patients were required to have at least 1 FGFR2/FGFR3 mutation or fusion per central lab testing of RNA from formalin-fixed, paraffin-embedded tumor samples, using a custom reverse transcriptase polymerase chain reaction assay.
# Patients were contacted every 12 weeks for survival assessment.
# The study was designed to enroll 180 patients with specified FGFR alterations. Of these, ≥88 were required in the selected regimen. […] Responses were assessed by investigators and an independent radiological review committee. Progression-free survival and overall survival were estimated using Kaplan-Meier product limit method. Data from patients who were progression free and alive or with unknown status were censored at last tumor assessment. Efficacy end points were analysed at primary analysis cut-off.
# [1] = FGFR mutations and fusions, n=7
# [2] = Fusion: FGFR2-CASP7/FGFR3-BAIAP2L1, n=1
# [3] = Fusion: FGFR2-CASP7/FGFR3-TACC3 V3, n=1
# [4] = Mutation and fusion: FGFR3-G370C/FGFR2-BICC1, n=1
# [5] = Mutation and fusion: FGFR3-G370C/FGFR3-TACC3 V1, n=1
# [6] = Mutation and fusion: FGFR3-R248C/FGFR3-S249C/FGFR3-TACC3 V1, n=1
# [7] = Mutation and fusion: FGFR3-R248C/FGFR3-TACC3 V1, n=2
# [8] = Mutation and fusion: FGFR3-S249C/FGFR3-BAIAP2L1, n=1
# [9] = Mutation and fusion: FGFR3-S249C/FGFR3-Y373C/FGFR2-CASP7/FGFR3-BAIAP2L1/FGFR3-TACC3 V1/FGFR3-TACC3 V3, n=1
# [10] = Mutation: FGFR3-G370C/FGFR3-S249C, n=2
# [11] = Mutation: FGFR3-R248C/FGFR3-Y373C, n=2
# [12] = Mutation: FGFR3-S249C/FGFR3-Y373C, n=1
compound,measurement,setting,value
"COc1cc(OC)cc(N(CCNC(C)C)c2ccc3ncc(-c4cnn(C)c4)nc3c2)c1 [erdafitinib, N-(3,5-dimethoxy-phenyl)-N′-(1-methylethyl)-N-[3-(1-methyl-1H-pyrazol-4-yl)quinoxalin-6-yl]ethane-1,2-diamine]",Confirmed partial response (PR),[1],3 (42.9%)
same,Disease control rate (CR + PR + SD),[1],5 (71.4%)
same,Inevaluable,[1],1 (14.3%)
same,Objective response rate (CR + PR),[1],4 (57.1%)
same,Progressive disease (PD),[1],1 (14.3%)
same,Confirmed complete response (CR),[2],0%
same,Confirmed partial response (PR),[2],0%
same,Disease control rate (CR + PR + SD),[2],1 (100.0%)
same,Inevaluable,[2],0%
same,Objective response rate (CR + PR),[2],0%
same,Progressive disease (PD),[2],0%
same,Confirmed complete response (CR),[3],0%
same,Confirmed partial response (PR),[3],0%
same,Disease control rate (CR + PR + SD),[3],0%
same,Inevaluable,[3],1 (100.0%)
same,Objective response rate (CR + PR),[3],0%
same,Progressive disease (PD),[3],0%
same,Confirmed complete response (CR),[4],1 (100.0%)
same,Confirmed partial response (PR),[4],0%
same,Disease control rate (CR + PR + SD),[4],1 (100.0%)
same,Inevaluable,[4],0%
same,Objective response rate (CR + PR),[4],1 (100.0%)
same,Progressive disease (PD),[4],0%
same,Confirmed complete response (CR),[5],0%
same,Confirmed partial response (PR),[5],1 (100.0%)
same,Disease control rate (CR + PR + SD),[5],1 (100.0%)
same,Inevaluable,[5],0%
same,Objective response rate (CR + PR),[5],1 (100.0%)
same,Progressive disease (PD),[5],0%
same,Confirmed complete response (CR),[6],0%
same,Confirmed partial response (PR),[6],1 (100.0%)
same,Disease control rate (CR + PR + SD),[6],1 (100.0%)
same,Inevaluable,[6],0%
same,Objective response rate (CR + PR),[6],1 (100.0%)
same,Progressive disease (PD),[6],0%
same,Confirmed complete response (CR),[7],0%
same,Confirmed partial response (PR),[7],1 (50.0%)
same,Disease control rate (CR + PR + SD),[7],1 (50.0%)
same,Inevaluable,[7],1 (50.0%)
same,Objective response rate (CR + PR),[7],1 (50.0%)
same,Progressive disease (PD),[7],0%
same,Confirmed complete response (CR),[8],0%
same,Confirmed partial response (PR),[8],0%
same,Disease control rate (CR + PR + SD),[8],0%
same,Inevaluable,[8],0%
same,Objective response rate (CR + PR),[8],0%
same,Progressive disease (PD),[8],1 (100.0%)
same,Confirmed complete response (CR),[9],0%
same,Confirmed partial response (PR),[9],0%
same,Disease control rate (CR + PR + SD),[9],1 (100.0%)
same,Inevaluable,[9],0%
same,Objective response rate (CR + PR),[9],0%
same,Progressive disease (PD),[9],0%
same,Confirmed complete response (CR),[10],0%
same,Confirmed partial response (PR),[10],1 (50.0%)
same,Disease control rate (CR + PR + SD),[10],2 (100.0%)
same,Inevaluable,[10],0%
same,Objective response rate (CR + PR),[10],1 (50.0%)
same,Progressive disease (PD),[10],0%
same,Confirmed complete response (CR),[11],0%
same,Confirmed partial response (PR),[11],2 (100.0%)
same,Disease control rate (CR + PR + SD),[11],2 (100.0%)
same,Inevaluable,[11],0%
same,Objective response rate (CR + PR),[11],2 (100.0%)
same,Progressive disease (PD),[11],0%
same,Confirmed complete response (CR),[12],0%
same,Confirmed partial response (PR),[12],0%
same,Disease control rate (CR + PR + SD),[12],1 (100.0%)
same,Inevaluable,[12],0%
same,Objective response rate (CR + PR),[12],0%
same,Progressive disease (PD),[12],0%

# — patent publication US12691112B2, “FGFR tyrosine kinase inhibitors for the treatment of urothelial carcinoma” (Janssen Pharmaceutica NV, priority 2019, dated 2026)
